Data reported in article PMC4700033, “Synergistic properties of cellulases from Clostridium cellulovorans in the presence of cellobiose” (AMB Express, 2016).

Legend:
Assay in all cases: DNS reducing sugar assay on acid-swollen cellulose
Type in all cases: biochemical
[1] = biological target: T1, ExgS (Clostridium cellulovorans, UniProt D9SS72); conditions: 5 mg/ml cellobiose; 0.5 % acid-swollen cellulose, 20 nmol/ml enzyme alone, 50 mM acetate pH 6.3, 2.5 mM CaCl2, 37 C
T1 construct: gene Clocel_2823; dockerin-bearing cellulosomal subunit
T1 sequence (D9SS72 1-727): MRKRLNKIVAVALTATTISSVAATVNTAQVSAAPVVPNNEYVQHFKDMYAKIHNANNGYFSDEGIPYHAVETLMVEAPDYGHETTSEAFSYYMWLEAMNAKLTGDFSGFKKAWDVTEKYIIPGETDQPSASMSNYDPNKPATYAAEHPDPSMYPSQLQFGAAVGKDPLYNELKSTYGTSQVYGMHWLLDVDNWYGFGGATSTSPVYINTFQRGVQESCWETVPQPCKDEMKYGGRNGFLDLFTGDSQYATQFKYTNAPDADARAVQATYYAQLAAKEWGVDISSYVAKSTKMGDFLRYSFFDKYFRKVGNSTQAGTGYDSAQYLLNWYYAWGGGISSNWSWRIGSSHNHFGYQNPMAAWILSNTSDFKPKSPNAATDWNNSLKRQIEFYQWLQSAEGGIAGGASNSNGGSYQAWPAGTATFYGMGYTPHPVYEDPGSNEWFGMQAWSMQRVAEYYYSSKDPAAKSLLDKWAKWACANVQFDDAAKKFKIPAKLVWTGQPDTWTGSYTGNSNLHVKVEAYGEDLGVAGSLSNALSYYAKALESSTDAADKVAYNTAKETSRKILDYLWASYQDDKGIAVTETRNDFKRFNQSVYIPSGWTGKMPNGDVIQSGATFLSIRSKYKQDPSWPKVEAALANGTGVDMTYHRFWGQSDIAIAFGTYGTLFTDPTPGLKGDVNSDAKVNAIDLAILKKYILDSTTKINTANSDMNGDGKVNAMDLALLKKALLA
Excerpt: DNS reducing sugar assay on acid-swollen cellulose on ExgS

[2] = biological target: T2, EngH (Clostridium cellulovorans, UniProt O65987); conditions: 5 mg/ml cellobiose; 0.5 % acid-swollen cellulose, 20 nmol/ml enzyme alone, 50 mM acetate pH 6.3, 2.5 mM CaCl2, 37 C
T2 construct: HisTrap purified from supernatant; trigger factor tag removed by HRV-3C protease
T2 sequence (O65987 14-715): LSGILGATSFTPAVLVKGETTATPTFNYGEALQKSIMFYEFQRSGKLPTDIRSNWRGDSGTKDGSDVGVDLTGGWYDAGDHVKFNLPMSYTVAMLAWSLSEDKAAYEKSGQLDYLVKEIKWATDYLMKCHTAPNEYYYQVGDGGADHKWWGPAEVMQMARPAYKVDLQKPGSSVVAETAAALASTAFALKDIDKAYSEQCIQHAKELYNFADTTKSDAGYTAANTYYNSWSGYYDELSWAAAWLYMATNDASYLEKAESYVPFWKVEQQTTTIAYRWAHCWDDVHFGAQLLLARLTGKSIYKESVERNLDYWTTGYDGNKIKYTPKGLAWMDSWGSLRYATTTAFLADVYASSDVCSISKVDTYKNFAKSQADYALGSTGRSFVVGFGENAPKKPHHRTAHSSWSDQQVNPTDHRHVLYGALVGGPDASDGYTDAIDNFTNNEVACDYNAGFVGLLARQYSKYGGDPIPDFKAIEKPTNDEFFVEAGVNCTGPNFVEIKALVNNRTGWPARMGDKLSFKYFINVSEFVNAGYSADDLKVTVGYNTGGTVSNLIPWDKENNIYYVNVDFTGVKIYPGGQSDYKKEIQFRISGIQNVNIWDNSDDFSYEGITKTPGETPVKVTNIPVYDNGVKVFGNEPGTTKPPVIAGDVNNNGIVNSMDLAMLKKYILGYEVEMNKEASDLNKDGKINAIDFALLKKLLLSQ
Excerpt: DNS reducing sugar assay on acid-swollen cellulose on EngH

[3] = biological target: T3, EngK (Clostridium cellulovorans, UniProt D9SS70); conditions: 5 mg/ml cellobiose; 0.5 % acid-swollen cellulose, 20 nmol/ml enzyme alone, 50 mM acetate pH 6.3, 2.5 mM CaCl2, 37 C; cellobiose also main product
T3 construct: gene Clocel_2821
T3 sequence (D9SS70 1-892 limits assumed): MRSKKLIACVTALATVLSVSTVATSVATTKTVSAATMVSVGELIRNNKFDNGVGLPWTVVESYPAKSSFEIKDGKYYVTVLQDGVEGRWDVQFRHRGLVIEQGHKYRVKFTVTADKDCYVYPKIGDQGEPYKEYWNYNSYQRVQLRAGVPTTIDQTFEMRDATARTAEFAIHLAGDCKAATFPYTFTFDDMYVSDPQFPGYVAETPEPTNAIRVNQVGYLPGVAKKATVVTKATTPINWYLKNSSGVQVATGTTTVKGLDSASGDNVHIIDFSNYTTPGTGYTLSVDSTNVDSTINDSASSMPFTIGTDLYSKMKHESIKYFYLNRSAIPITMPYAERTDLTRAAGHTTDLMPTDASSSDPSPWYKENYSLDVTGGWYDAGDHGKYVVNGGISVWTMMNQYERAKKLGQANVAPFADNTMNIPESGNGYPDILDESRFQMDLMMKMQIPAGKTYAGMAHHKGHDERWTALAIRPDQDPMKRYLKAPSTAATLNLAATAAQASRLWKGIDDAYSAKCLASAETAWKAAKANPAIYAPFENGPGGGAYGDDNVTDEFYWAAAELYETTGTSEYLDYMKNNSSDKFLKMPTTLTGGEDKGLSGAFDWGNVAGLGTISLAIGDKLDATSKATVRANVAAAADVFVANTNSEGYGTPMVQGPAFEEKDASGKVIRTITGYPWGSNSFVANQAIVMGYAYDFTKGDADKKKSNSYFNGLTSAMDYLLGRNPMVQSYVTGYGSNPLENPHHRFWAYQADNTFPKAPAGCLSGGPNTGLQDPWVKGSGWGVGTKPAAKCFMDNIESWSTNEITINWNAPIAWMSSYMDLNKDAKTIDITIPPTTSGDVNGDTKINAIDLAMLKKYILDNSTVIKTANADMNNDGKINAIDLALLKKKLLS
Excerpt: DNS reducing sugar assay on acid-swollen cellulose on EngK

OC[C@H]1O[C@@H](O[C@H]2[C@H](O)[C@@H](O)C(O)O[C@@H]2CO)[C@H](O)[C@@H](O)[C@@H]1O (stereo partly drawn) [cellobiose]
Inhibition rate (%) [1]: 98.5%
Inhibition rate (%) [2]: 98.7%
Inhibition rate (%) [3]: 90.1%
